In brackets after ≈: the same amount, converted by molar mass.
Legend:
Bacillus cereus = assay: Antibacterial activity against clinical isolates of Bacillus cereus assessed as growth inhibition after 24 hrs at 37 degC by iodonitrotetrazolium chloride staining based microdilution broth assay; type: functional
Talaromyces funiculosus = assay: Antifungal activity against Penicillium funiculosum ATCC 36839 assessed as growth inhibition after 72 hrs at 28 degC by serial dilution method; type: functional; conditions: for MIC: Talaromyces funiculosus, ATCC 36839, 72 h
Listeria monocytogenes = assay: Antibacterial activity against Listeria monocytogenes NCTC 7973 assessed as growth inhibition after 24 hrs at 37 degC by iodonitrotetrazolium chloride staining based microdilution broth assay; type: functional; conditions: NCTC 7973, 24 h
Escherichia coli = assay: Antibacterial activity against Escherichia coli ATCC 35210 assessed as growth inhibition after 24 hrs at 37 degC by iodonitrotetrazolium chloride staining based microdilution broth assay; type: functional; conditions: ATCC 35210, 24 h
Staphylococcus aureus = assay: Antibacterial activity against Staphylococcus aureus ATCC 6538 assessed as growth inhibition after 24 hrs at 37 degC by iodonitrotetrazolium chloride staining based microdilution broth assay; type: functional; conditions: ATCC 6538, 24 h
Enterobacter cloacae = assay: Antibacterial activity against human isolate of Enterobacter cloacae assessed as growth inhibition after 24 hrs at 37 degC by iodonitrotetrazolium chloride staining based microdilution broth assay; type: functional
Pseudomonas aeruginosa = assay: Antibacterial activity against Pseudomonas aeruginosa ATCC 27853 assessed as growth inhibition after 24 hrs at 37 degC by iodonitrotetrazolium chloride staining based microdilution broth assay; type: functional; conditions: ATCC 27853, 24 h
[1] = molecular target: Human immunodeficiency virus type 1 reverse transcriptase (Human immunodeficiency virus 1) (UniProt Q72547); assay: Inhibition of HIV1 reverse transcriptase assessed as residual enzyme activity by measuring reduction in [3H]dTTP incorporation into poly(rA)-oligo(dT) at 4 uM incubated for 15 mins by scintillation counting method relative to control
Penicillium ochrochloron = assay: Antifungal activity against Penicillium ochrochloron ATCC 9112 assessed as growth inhibition after 72 hrs at 28 degC by serial dilution method; type: functional; conditions: for MIC: Penicillium ochrochloron, ATCC 9112, 72 h
Candida albicans = assay: Antifungal activity against Candida albicans ATCC 10231 assessed as growth inhibition after 72 hrs at 28 degC by serial dilution method; type: functional; conditions: for MIC: Candida albicans, ATCC 10231, 72 h
Aspergillus niger = assay: Antifungal activity against Aspergillus niger ATCC 6275 assessed as growth inhibition after 72 hrs at 28 degC by serial dilution method; type: functional; conditions: for MIC: Aspergillus niger, ATCC 6275, 72 h
Micrococcus flavus = assay: Antibacterial activity against Micrococcus flavus ATCC 10240 assessed as growth inhibition after 24 hrs at 37 degC by iodonitrotetrazolium chloride staining based microdilution broth assay; type: functional; conditions: ATCC 10240, 24 h
Aspergillus ochraceus = assay: Antifungal activity against Aspergillus ochraceus ATCC 12066 assessed as growth inhibition after 72 hrs at 28 degC by serial dilution method; type: functional; conditions: for MIC: Aspergillus ochraceus, ATCC 12066, 72 h
Aspergillus versicolor = assay: Antifungal activity against Aspergillus versicolor ATCC 11730 assessed as growth inhibition after 72 hrs at 28 degC by serial dilution method; type: functional; conditions: for MIC: Aspergillus versicolor, ATCC 11730, 72 h
Trichoderma viride = assay: Antifungal activity against Trichoderma viride IAM 5061 assessed as growth inhibition after 72 hrs at 28 degC by serial dilution method; type: functional; conditions: for MIC: Trichoderma viride, IAM 5061, 72 h
Salmonella typhimurium = assay: Antibacterial activity against Salmonella typhimurium ATCC 13311 assessed as growth inhibition after 24 hrs at 37 degC by iodonitrotetrazolium chloride staining based microdilution broth assay; type: functional, Salmonella enterica subsp. enterica serovar Typhimurium; conditions: Salmonella enterica, ATCC 13311, 24 h
Aspergillus fumigatus = assay: Antifungal activity against Aspergillus fumigatus ATCC 1022 assessed as growth inhibition after 72 hrs at 28 degC by serial dilution method; type: functional; conditions: for MIC: Aspergillus fumigatus, ATCC 1022, 72 h

Compound | MBC (Bacillus cereus) [µM] | MIC (Bacillus cereus) [µM] | MFC99.5 (Talaromyces funiculosus) [×10⁻² umol/ml] | MIC (Talaromyces funiculosus) [µM] | MBC (Listeria monocytogenes) [µM] | MIC (Listeria monocytogenes) [µM] | MBC (Escherichia coli) [µM] | MIC (Escherichia coli) [µM] | MBC (Staphylococcus aureus) [µM] | MIC (Staphylococcus aureus) [µM] | MBC (Enterobacter cloacae) [µM] | MIC (Enterobacter cloacae) [µM] | MBC (Pseudomonas aeruginosa) [µM] | MIC (Pseudomonas aeruginosa) [µM] | MFC99.5 (Penicillium ochrochloron) [×10⁻² umol/ml] | MIC (Penicillium ochrochloron) [µM] | MFC99.5 (Candida albicans) [×10⁻² umol/ml] | MIC (Candida albicans) [µM] | MFC99.5 (Aspergillus niger) [×10⁻² umol/ml] | MIC (Aspergillus niger) [µM] | other results
O=C1CSC(c2c(Cl)cccc2Cl)N1c1nc(C23CC4CC(CC(C4)C2)C3)cs1 (stereo not drawn) | 645 (≈ 300 µg/mL) | 430 (≈ 200 µg/mL) | 53.71 | 215 (≈ 100 µg/mL) | 860 (≈ 400 µg/mL) | 430 (≈ 200 µg/mL) | 430 (≈ 200 µg/mL) | 215 (≈ 100 µg/mL) | 645 (≈ 300 µg/mL) | 430 (≈ 200 µg/mL) | 430 (≈ 200 µg/mL) | 430 (≈ 200 µg/mL) | 645 (≈ 300 µg/mL) | 430 (≈ 200 µg/mL) | 32.22 | 215 (≈ 100 µg/mL) | 64.45 | 430 (≈ 200 µg/mL) | 32.22 | 215 (≈ 100 µg/mL) | Activity [1]: 52.5%; MBC (Micrococcus flavus): 430 µM (≈ 200 µg/mL); MIC (Micrococcus flavus): 215 µM (≈ 100 µg/mL); MFC99.5 (Aspergillus ochraceus): 53.71 ×10⁻² umol/ml; MIC (Aspergillus ochraceus): 107 µM (≈ 50 µg/mL); MFC99.5 (Aspergillus versicolor): 32.22 ×10⁻² umol/ml; MIC (Aspergillus versicolor): 215 µM (≈ 100 µg/mL); MFC99.5 (Trichoderma viride): 21.48 ×10⁻² umol/ml; MIC (Trichoderma viride): 215 µM (≈ 100 µg/mL); MBC (Salmonella typhimurium): 430 µM (≈ 200 µg/mL); MIC (Salmonella typhimurium): 215 µM (≈ 100 µg/mL); MFC99.5 (Aspergillus fumigatus): 53.71 ×10⁻² umol/ml; MIC (Aspergillus fumigatus): 215 µM (≈ 100 µg/mL)
CC1(C)S[C@@H]2[C@H](NC(=O)[C@H](N)c3ccccc3)C(=O)N2[C@H]1C(=O)O [AMPICILLIN] | 372 (≈ 130 µg/mL) | 248 (≈ 86.7 µg/mL) |  |  | 744 (≈ 260 µg/mL) | 372 (≈ 130 µg/mL) | 492 (≈ 172 µg/mL) | 372 (≈ 130 µg/mL) | 378 (≈ 132 µg/mL) | 248 (≈ 86.7 µg/mL) | 372 (≈ 130 µg/mL) | 248 (≈ 86.6 µg/mL) | 1240 (≈ 433 µg/mL) | 744 (≈ 260 µg/mL) |  |  |  |  |  |  | MBC (Micrococcus flavus): 372 µM (≈ 130 µg/mL); MIC (Micrococcus flavus): 248 µM (≈ 86.7 µg/mL); MBC (Salmonella typhimurium): 492 µM (≈ 172 µg/mL); MIC (Salmonella typhimurium): 248 µM (≈ 86.7 µg/mL)
O=C1CSC(c2ccc([N+](=O)[O-])cc2)N1c1nc(C23CC4CC(CC(C4)C2)C3)cs1 (stereo not drawn) | 30.6 (≈ 13.5 µg/mL) | 16.2 (≈ 7.18 µg/mL) | 0.14 | 0.7 (≈ 0.309 µg/mL) | 125 (≈ 55.2 µg/mL) | 61.2 (≈ 27 µg/mL) | 125 (≈ 55.2 µg/mL) | 85 (≈ 37.5 µg/mL) | 61.2 (≈ 27 µg/mL) | 30.6 (≈ 13.5 µg/mL) | 62.5 (≈ 27.6 µg/mL) | 30.6 (≈ 13.5 µg/mL) | 125 (≈ 55.2 µg/mL) | 30.6 (≈ 13.5 µg/mL) | 0.28 | 1.4 (≈ 0.618 µg/mL) | 2.26 | 11.3 (≈ 4.99 µg/mL) | 0.56 | 3.5 (≈ 1.55 µg/mL) | Activity [1]: 99.3%; MBC (Micrococcus flavus): 125 µM (≈ 55.2 µg/mL); MIC (Micrococcus flavus): 61.2 µM (≈ 27 µg/mL); MFC99.5 (Aspergillus ochraceus): 0.28 ×10⁻² umol/ml; MIC (Aspergillus ochraceus): 1.4 µM (≈ 0.618 µg/mL); MFC99.5 (Aspergillus versicolor): 1.13 ×10⁻² umol/ml; MIC (Aspergillus versicolor): 5.6 µM (≈ 2.47 µg/mL); MFC99.5 (Trichoderma viride): 0.28 ×10⁻² umol/ml; MIC (Trichoderma viride): 1.4 µM (≈ 0.618 µg/mL); MBC (Salmonella typhimurium): 125 µM (≈ 55.2 µg/mL); MIC (Salmonella typhimurium): 30.6 µM (≈ 13.5 µg/mL); MFC99.5 (Aspergillus fumigatus): 4.52 ×10⁻² umol/ml; MIC (Aspergillus fumigatus): 11.3 µM (≈ 4.99 µg/mL)
c1ccc(-c2ccc(C(c3ccccc3)n3ccnc3)cc2)cc1 (stereo not drawn) [BIFONAZOLE] |  |  | 80 | 640 (≈ 199 µg/mL) |  |  |  |  |  |  |  |  |  |  | 64 | 480 (≈ 149 µg/mL) | 48 | 320 (≈ 99.3 µg/mL) | 64 | 480 (≈ 149 µg/mL) | MFC99.5 (Aspergillus ochraceus): 80 ×10⁻² umol/ml; MIC (Aspergillus ochraceus): 480 µM (≈ 149 µg/mL); MFC99.5 (Aspergillus versicolor): 64 ×10⁻² umol/ml; MIC (Aspergillus versicolor): 320 µM (≈ 99.3 µg/mL); MFC99.5 (Trichoderma viride): 80 ×10⁻² umol/ml; MIC (Trichoderma viride): 640 µM (≈ 199 µg/mL); MFC99.5 (Aspergillus fumigatus): 64 ×10⁻² umol/ml; MIC (Aspergillus fumigatus): 480 µM (≈ 149 µg/mL)
